Results as given in patent US20200030304A1 (priority 2017, published 2020).

Test system: DFP-induced status epilepticus
Conditions: rat, in vivo

## Cc1ncc2n1-c1ccc(Cl)cc1C(c1ccccc1F)=NC2 [Midazolam, midazolam]
  effect on behavioral seizure scores induced by DFP: in-effective in reducing the behavioral seizure scores
  mortality: no mortality

## CCCC(CCC)C(=O)[O-].[Na+] [sodium valproate]
  termination of status epilepticus / EEG epileptiform activity: intermittent spikes and seizure activity during the whole 5 h of EEG recording
